The conditions of series [1]: Crystal; DSC.
A short description of series [2]: Molar enthalpy of transition or fusion. The note with it: Crystal; DSC.

± gives the expanded uncertainty stated by the source.

With `C[N+](C)(C)C[C@H](O)CC(=O)[O-].O=C(O)/C=C/C(=O)O` [L-carnitine fumarate], the Triple point temperature in series [1] is 412.2 ± 0.8 K. Besides, in series [2], the “Molar enthalpy of transition or fusion” value is 12.2 ± 0.335 kcal/mol.

Source of the values: the NIST ThermoML archive (doi:10.1021/acs.jced.7b00768).
